Laboratory results taken from ChEMBL document CHEMBL1201862, “PubChem BioAssay data set” (2004).
The source made the active and inactive calls.

Legend:
[1] = A Cell Based Secondary Assay To Explore Cytotoxicity of Compounds that Sensitize Mycobacterium Tuberculosis to Beta-Lactam Antibiotics.; format: functional
Estrogen receptor = target: T1, Estrogen receptor (Homo sapiens, UniProt P03372);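 note: potency for inhibiting coactivator peptide recruitment to the receptor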
T1 sequence (P03372 whole entry): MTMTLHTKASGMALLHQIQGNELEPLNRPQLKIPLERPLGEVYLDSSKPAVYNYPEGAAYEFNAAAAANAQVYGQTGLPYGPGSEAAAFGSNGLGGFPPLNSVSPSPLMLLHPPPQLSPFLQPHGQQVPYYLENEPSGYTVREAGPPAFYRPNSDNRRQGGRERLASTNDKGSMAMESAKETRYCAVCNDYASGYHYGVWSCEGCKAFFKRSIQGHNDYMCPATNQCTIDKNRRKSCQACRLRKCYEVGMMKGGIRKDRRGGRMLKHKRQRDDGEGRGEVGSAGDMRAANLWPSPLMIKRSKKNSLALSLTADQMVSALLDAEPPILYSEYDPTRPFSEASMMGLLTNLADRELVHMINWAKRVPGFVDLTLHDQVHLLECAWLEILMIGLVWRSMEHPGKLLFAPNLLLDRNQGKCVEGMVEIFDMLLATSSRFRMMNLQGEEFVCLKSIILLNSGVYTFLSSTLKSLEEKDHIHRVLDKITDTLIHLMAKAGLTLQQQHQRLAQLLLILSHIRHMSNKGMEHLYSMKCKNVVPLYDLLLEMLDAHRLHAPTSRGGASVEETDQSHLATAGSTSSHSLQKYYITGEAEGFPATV

[2] = target: T2, Long-chain-fatty-acid--AMP ligase FadD28 (Mycobacterium tuberculosis, UniProt P9WQ59); experiment: Fluorescence polarization aasay to screen for inhibitors that compete for the binding of FadD28 to a bisubstrate Measured in Biochemical System Using Plate Reader - 2147-01_Inhibitor_Dose_CherryPick_Activity.; format: functional, Mycobacterium tuberculosis H37Rv
T2 sequence (P9WQ59 whole entry): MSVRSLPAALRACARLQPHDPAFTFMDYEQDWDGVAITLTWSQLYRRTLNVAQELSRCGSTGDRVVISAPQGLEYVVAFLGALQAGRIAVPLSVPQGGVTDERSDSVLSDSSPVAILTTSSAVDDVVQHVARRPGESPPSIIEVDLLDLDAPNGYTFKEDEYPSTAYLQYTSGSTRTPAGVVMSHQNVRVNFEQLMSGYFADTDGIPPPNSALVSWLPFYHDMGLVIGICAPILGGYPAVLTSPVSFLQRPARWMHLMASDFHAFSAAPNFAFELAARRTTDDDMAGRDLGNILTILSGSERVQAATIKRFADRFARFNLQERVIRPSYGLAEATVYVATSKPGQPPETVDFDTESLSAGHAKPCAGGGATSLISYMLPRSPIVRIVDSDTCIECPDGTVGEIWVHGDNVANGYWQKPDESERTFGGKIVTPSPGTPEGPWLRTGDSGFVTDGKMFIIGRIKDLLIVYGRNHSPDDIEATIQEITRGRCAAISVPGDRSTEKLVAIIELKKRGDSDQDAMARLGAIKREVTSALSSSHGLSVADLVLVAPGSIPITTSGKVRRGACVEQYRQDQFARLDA

Aspartyl aminopeptidase = target: T3, Aspartyl aminopeptidase (Plasmodium falciparum 3D7, UniProt Q8I2J3); experiment: Counterscreen for inhibitors of M1 and M17 aminopeptidases: QFRET-based biochemical high throughput dose response assay for inhibitors of the Plasmodium falciparum M18 Aspartyl Aminopeptidase (PFM18AAP). [Related PubChem assays: 1619 (Screening assay (M17LAP inhibitors).), 1445 (Screening assay (M1AAP inhibitors).)]
T3 sequence (Q8I2J3 whole entry): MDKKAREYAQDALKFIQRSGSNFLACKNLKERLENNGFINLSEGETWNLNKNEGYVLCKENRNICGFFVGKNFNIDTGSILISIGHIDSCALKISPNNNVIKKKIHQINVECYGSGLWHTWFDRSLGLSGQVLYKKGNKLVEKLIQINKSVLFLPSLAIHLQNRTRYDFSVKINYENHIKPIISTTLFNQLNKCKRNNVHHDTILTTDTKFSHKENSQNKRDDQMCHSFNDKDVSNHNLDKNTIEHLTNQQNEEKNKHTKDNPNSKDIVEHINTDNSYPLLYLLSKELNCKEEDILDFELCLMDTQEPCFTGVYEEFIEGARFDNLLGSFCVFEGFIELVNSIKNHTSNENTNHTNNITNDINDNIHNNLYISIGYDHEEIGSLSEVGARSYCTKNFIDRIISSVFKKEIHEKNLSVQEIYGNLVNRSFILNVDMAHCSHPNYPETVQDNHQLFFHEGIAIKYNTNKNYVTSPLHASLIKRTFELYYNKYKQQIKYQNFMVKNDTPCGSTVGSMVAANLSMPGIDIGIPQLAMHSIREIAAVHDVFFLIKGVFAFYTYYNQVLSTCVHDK

Leucine aminopeptidase = target: T4, Leucine aminopeptidase (Plasmodium falciparum 3D7, UniProt Q8IL11); experiment: P. falciparum M17LAP inhibitors, primary screen, biochemical, fluorogenic H-Leu-NHMec substrate, 1536-well (AID 1619); format: functional
T4 sequence (Q8IL11 whole entry): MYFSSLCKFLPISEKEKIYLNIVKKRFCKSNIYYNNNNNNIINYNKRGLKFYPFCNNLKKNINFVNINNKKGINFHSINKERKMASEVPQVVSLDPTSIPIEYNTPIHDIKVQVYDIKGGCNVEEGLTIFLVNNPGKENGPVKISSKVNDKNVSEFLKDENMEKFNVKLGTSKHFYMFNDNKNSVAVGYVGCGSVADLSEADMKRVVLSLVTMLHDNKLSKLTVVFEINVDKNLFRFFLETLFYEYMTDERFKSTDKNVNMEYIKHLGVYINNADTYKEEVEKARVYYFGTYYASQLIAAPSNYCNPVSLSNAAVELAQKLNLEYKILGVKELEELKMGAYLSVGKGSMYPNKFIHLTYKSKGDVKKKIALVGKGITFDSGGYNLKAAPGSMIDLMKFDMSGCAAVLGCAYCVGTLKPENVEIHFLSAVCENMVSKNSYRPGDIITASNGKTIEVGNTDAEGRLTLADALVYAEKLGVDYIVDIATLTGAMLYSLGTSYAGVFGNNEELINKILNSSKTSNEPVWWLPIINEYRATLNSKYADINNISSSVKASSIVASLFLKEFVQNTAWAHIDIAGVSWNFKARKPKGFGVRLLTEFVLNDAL

Procathepsin L = Procathepsin L (Homo sapiens, UniProt P07711); experiment: CTSL1 protease inhibition – biochemical, QFRET, 1536-well, counter-screen for M1/M17 aminopeptidase inhibitor project, dose response (AID 2214)
Sequence of Procathepsin L (P07711 whole entry): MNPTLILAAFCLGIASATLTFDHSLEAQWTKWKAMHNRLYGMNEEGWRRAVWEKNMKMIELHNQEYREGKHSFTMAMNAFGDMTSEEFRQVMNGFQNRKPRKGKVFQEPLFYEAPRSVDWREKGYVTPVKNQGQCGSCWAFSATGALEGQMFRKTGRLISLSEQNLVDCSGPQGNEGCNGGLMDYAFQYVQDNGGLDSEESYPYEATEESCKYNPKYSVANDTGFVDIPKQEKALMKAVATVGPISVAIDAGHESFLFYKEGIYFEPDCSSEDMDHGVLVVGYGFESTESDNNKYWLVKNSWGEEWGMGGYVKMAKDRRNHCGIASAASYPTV

Caspase-6 = target: T5, Caspase-6 (Homo sapiens, UniProt P55212); experiment: inhibition of CASP6 peptide cleavage – biochemical, VEID-R110 fluorescence, cherry-pick, dose response (AID 720632)
T5 sequence (P55212 whole entry): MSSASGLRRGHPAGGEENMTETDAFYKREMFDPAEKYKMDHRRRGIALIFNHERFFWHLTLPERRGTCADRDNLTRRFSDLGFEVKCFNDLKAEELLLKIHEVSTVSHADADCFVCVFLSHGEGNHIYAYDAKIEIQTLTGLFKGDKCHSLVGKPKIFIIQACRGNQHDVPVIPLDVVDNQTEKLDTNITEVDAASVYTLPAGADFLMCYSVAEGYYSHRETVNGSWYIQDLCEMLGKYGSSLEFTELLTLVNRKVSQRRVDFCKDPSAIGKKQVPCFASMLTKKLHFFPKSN

Estrogen receptor beta = Estrogen receptor beta (Homo sapiens, UniProt Q92731);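 note: recombinant ER-beta bound to coactivator SRC1 peptide in presence of estradiol agonist; inhibitors block coactivator peptide binding and lower the FRET signal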
Sequence of Estrogen receptor beta (Q92731 whole entry): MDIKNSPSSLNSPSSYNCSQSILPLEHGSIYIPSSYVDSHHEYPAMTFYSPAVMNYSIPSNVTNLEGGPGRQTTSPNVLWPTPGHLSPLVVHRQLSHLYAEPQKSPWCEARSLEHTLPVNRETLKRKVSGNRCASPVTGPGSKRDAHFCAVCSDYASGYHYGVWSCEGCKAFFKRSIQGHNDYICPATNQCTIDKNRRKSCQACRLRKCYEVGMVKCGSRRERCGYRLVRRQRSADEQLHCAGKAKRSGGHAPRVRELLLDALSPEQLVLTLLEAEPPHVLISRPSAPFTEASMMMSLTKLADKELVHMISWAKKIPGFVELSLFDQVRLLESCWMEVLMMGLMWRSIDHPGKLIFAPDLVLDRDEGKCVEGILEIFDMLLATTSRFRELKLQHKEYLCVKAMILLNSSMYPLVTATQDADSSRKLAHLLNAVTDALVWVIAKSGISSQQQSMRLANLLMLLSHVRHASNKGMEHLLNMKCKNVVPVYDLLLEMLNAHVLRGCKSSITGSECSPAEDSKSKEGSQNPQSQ

[3] = Luminescence Cell-Based Dose Retest to Confirm Inhibitors of Cancer Stem Cells. [Related pubchem assays (depositor defined):AID2717, AID2721]; format: functional; details: Homo sapiens
[4] = target: Disintegrin and metalloproteinase domain-containing protein 17 (Homo sapiens, UniProt P78536); experiment: inhibition of ADAM17 substrate cleavage – biochemical, quenched FRET substrate, counter-screen for ADAM10 exosite inhibitor project, dose response (AID 743253)
Sequence of Disintegrin and metalloproteinase domain-containing protein 17 (P78536 whole entry, the tested form may be a part): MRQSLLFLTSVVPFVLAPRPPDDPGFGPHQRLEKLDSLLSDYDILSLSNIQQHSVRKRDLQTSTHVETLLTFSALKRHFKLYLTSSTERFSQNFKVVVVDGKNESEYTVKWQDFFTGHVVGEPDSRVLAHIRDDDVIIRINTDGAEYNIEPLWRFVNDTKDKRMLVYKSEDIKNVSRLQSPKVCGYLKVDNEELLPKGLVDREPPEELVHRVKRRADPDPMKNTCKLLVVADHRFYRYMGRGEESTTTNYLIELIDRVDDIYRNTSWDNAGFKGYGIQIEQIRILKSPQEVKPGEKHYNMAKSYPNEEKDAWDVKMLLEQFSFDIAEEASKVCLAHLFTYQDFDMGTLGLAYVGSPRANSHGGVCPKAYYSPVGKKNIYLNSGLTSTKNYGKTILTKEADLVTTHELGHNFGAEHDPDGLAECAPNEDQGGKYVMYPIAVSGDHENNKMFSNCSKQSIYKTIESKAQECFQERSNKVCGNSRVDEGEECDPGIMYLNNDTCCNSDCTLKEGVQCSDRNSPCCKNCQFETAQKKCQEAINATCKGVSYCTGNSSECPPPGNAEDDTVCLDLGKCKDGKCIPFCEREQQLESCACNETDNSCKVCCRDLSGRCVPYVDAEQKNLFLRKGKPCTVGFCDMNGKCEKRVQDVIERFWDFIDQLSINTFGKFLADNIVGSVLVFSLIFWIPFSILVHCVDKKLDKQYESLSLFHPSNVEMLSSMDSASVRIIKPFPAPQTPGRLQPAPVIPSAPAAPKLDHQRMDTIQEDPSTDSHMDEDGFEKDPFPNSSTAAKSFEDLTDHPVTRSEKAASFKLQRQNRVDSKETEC

[5] = target: T6, Ubiquitin-conjugating enzyme E2 N (Homo sapiens, UniProt P61088); format: functional;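 note: Dose-response confirmation in a TR-FRET assay detecting UBC13-driven polyubiquitin chain formation, inhibition measured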
T6 sequence (P61088 whole entry): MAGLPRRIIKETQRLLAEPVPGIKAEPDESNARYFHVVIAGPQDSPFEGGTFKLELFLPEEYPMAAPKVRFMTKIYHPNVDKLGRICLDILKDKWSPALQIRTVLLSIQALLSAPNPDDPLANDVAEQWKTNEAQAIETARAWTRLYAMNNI

[6] = target: T7, DNA repair and recombination protein RAD54-like (Homo sapiens, UniProt Q92698); experiment: RAD54 Holliday junction migration blockers – biochemical, fluorescence, cherry-picked samples, dose series, confirmation (AID 651657); format: functional
T7 sequence (Q92698 whole entry): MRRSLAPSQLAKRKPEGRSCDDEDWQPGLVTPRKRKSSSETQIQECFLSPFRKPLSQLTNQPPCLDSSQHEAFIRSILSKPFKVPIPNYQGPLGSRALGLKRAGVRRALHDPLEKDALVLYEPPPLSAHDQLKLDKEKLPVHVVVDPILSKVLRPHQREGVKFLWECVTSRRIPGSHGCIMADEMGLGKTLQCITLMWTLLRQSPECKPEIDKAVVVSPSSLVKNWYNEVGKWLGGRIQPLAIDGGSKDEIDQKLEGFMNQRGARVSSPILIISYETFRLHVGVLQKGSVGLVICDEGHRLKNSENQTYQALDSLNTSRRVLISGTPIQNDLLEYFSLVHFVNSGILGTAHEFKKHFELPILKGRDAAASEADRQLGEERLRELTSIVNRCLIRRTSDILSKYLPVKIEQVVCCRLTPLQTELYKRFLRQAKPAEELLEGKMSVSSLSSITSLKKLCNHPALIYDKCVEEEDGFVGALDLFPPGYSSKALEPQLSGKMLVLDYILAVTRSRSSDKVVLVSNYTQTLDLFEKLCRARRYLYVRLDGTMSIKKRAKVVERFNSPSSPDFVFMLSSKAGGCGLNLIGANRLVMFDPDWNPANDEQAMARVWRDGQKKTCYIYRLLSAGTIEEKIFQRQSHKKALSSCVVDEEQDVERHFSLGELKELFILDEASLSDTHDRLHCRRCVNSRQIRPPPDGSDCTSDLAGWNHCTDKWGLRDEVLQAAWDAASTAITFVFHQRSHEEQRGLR

## Cc1ccc(C(=O)Nc2ccc(N3CCN(C(=O)c4cccs4)CC3)cc2)c(Cl)c1
[1]
  CC50: > 40 µM (active)

## O=C(NC1CCS(=O)(=O)C1)c1c(NC(=O)C2COc3ccccc3O2)sc2c1CCCC2 (stereo unspecified)
Estrogen receptor
  IC50: > 50 µM (not active)

## Cc1nc2c(C(=O)NCCC3=CCCCC3)cnn2c(O)c1Cl
[2]
  AC50: > 100 µM (inactive)

## Cn1c(=O)c(C(=O)COC(=O)c2cc(C3CC3)nc3ccccc23)c(N)n(Cc2ccccc2)c1=O
[1]
  CC50: > 40 µM (active)

## O=C(NN1C(=O)/C(=C/c2cccc(O)c2)SC1=S)c1ccccc1O
[2]
  AC50: 66.2 µM (active)

## COc1cc(NC(=O)CSc2nnc3c(C)cc4cc(C)cc(C)c4n23)c(C(=O)O)cc1OC
Aspartyl aminopeptidase
  IC50: > 73.5 µM (not active)
Leucine aminopeptidase
  IC50: 6 µM (active)
Procathepsin L
  IC50: > 59.6 µM (not active)

## COc1cc(SC)ccc1C(=O)OC(C)C(=O)NC1CCCC1 (stereo unspecified)
Caspase-6
  AC50: 24.6 µM (active)

## CC1(C)Cc2c(C#N)c(SCc3ccccc3)nc(N3CCOCC3)c2CO1
[1]
  CC50: > 40 µM (active)

## COC(=O)c1cnn2c(C(F)(F)F)cc(-c3ccco3)nc12
Estrogen receptor beta
  IC50: 25.9 µM (active)
Estrogen receptor
  IC50: 42.4 µM (not active)

## O=C(O)C1CC=CCC1C(=O)Nc1cc(Cl)ccc1Cl (stereo unspecified)
Aspartyl aminopeptidase
  IC50: > 73.5 µM (not active)
Leucine aminopeptidase
  IC50: 6.22 µM (active)
Procathepsin L
  IC50: > 59.6 µM (not active)

## COc1ccc(/C=C2\SC(=O)N(CC(=O)Nc3cccnc3)C2=O)cc1OC
[2]
  AC50: 32 µM (inactive)

## O=C1CC(N(CCc2ccccc2)C(=S)Nc2cc(Cl)ccc2Cl)C(=O)N1c1c(Cl)cccc1Cl (stereo unspecified)
[3]
  AC50: 1.61 µM (active)
[4]
  IC50: > 69.5 µM (inactive)

## CC1CCCCN1CCNC(=O)c1cc2c(=O)n(C)c3ccccc3c2n1C (stereo unspecified)
[5]
  IC50: > 20 µM (inactive)
[6]
  AC50: 33 µM (active)

## CCOc1ccc(NC(=O)Nc2cccs2)cc1
Aspartyl aminopeptidase
  IC50: > 73.5 µM (not active)
Leucine aminopeptidase
  IC50: 3.22 µM (active)
Procathepsin L
  IC50: > 59.6 µM (not active)

## CCCCN(C)CCN=C(S)Nc1ccc2nc(N3CCN(CC)CC3)cc(C)c2c1
[6]
  AC50: 16.2 µM (active)

## O=C(O)[C@@H]1[C@@H](CO)[C@@H]2Cn3c(ccc(/C=C/c4ccccc4)c3=O)[C@@H]2N1Cc1ccc2c(c1)OCO2
Caspase-6
  AC50: 41.3 µM (active)

## CC(N)C(=O)NC(C(=O)NC(C)C(=O)Nc1cccc2ccccc12)C(C)C (stereo unspecified)
Caspase-6
  AC50: 10.7 µM (active)
